Like-named read-outs stand apart in the source and are kept apart here.
What was measured:
Aβ oligomers [1] = assay: Microimmunoelectrode (MIE) measurement of Aβ oligomers in patient CSF after single dose (NCT03522129); format: in vivo, human
Method: (§1) Methods: A Phase 2 clinical trial (NCT03522129) was conducted enrolling patients with mild-to-moderate Alzheimer's disease (MMSE 18-26) into the Randomized, double-blind, placebo-controlled, single dose administration of CT1812 followed by hourly sampling of lumbar CSF via indwelling catheter for 24 hours. The primary objective of the study was to evaluate target engagement of CT1812 treatment by measuring the displacement of Aβ oligomers into cerebrospinal fluid (CSF). The was quantified by a measuring change from the baseline CSF Aβ oligomer concentration after dosing with CT1812 versus placebo. Microimmunoelectrodes (Yuede et al 2016) coated with oligomer-specific antibody, A11 were placed in CSF samples of Alzheimer's disease patient samples to detect soluble Aβ after a single dose of CT1812 (560 mg) or placebo. Results: Microimmunoelectrode (MIE) measurements of Aβ oligomers in CSF show a drug-dependent rise in Aβ oligomers over time.

Aβ 40 and 42 monomers = Aβ 40 and 42 monomers in patient CSF after single dose (NCT03522129); format: in vivo, human; settings: single dose 560 mg, similar in all three patients including placebo
Method: as §1, with “[…] Percent change from baseline” for “Results: Microimmunoelectrode (MIE) measurements of Aβ oligomers in CSF show a drug-dependent rise”, “40 and 42 monomers were similar in all three patients (<50% increase). […] CSF Aβ oligomer levels were fit to a linear regression and the significance of the slope difference from zero was determined for each patient (FIG. 4 (measured by microimmunoelectrodes); FIG. 5 (measured by Western Blot)).” for “oligomers over time.”

Aβ oligomers [2] = assay: Native Western Blot (82E1 antibody) measurement of Aβ oligomers in patient CSF (NCT03522129); format: in vivo, human
Patients = assay: ADAS-COG score after 185 days of treatment versus placebo; format: in vivo, human; settings: day 185, treated at least 6 months (185 days), FIG. 7
Text: Patients treated for at least 6 months (185 days) with CT1812 were compared with patients who received placebo.

[3] = system: amyloid β oligomers and monomers; settings: animal models and preclinical data; cited from earlier work
[4] = Plasma and CSF pharmacokinetics from NCT03522129; format: in vivo, human; settings: single dose of CT1812 (560 mg); for AUC(0-t) / Cmax / Kp: 560 mg; for Kp: CSF/plasma
amyloid β monomer = settings: human subjects treated for 28 days; see 62/976,325; cited from earlier work

CC(C)(C)Oc1cc(CCC(C)(C)N2Cc3ccc(S(C)(=O)=O)cc3C2)ccc1O [CT1812]
linear slope of CSF Aβ oligomer level over time (MIE) (Aβ oligomers [1]; Patients 1 and 3, p<0.001 for each patient, R^2=0.7720 and 0.7898, placebo slope not different from zero): significantly non-zero | Aβ oligomer levels in CSF over time (MIE) (Aβ oligomers [1]; single dose 560 mg, hourly lumbar CSF for 24 hours, mild-to-moderate Alzheimer's disease patients, not seen in placebo patient): apparent increase with time | Aβ oligomer increase, percent change from baseline in CSF (Aβ oligomers [1]; two treated patients, single dose 560 mg, no increase in placebo-treated patient, FIG. 4 (MIE), FIG. 5 (Western Blot)): more than 200% | Percent change from baseline in Aβ 40 and 42 monomers (increase) (Aβ 40 and 42 monomers): < 50% | linear slope of CSF Aβ oligomer level over time (Western Blot) (Aβ oligomers [2]; Patients 1 and 3, p<0.001 for each patient, R^2=0.9808 and 0.3997, placebo slope not different from zero): significantly non-zero | Aβ oligomer levels in CSF over time (Western Blot) (Aβ oligomers [2]; single dose 560 mg, hourly lumbar CSF for 24 hours, not seen in placebo patient): apparent increase with time | difference in Alzheimer's Disease Assessment Score (ADAS-COG) between treated and untreated patients (Patients): three-point difference | amyloid β oligomer concentration in cerebral spinal fluid and brain interstitial fluid [3]: selectively displace oligomers and increase their concentration | concentration of amyloid β monomers [3]: had not effect | tmax ([4]; Plasma, Subject 90003): 2.00 h | AUC(0-t) ([4]; human, CSF, Subject 90001): 120 ng·h/mL | Cmax ([4]; human, CSF, Subject 90001): 24.9 ng/mL | AUC(0-t) ([4]; human, CSF, Subject 90003): 46.4 ng·h/mL | Cmax ([4]; human, CSF, Subject 90003): 7.27 ng/mL | Kp ([4]; human, Subject 90001, read-out: CSF/Plasma Ratio based on AUC0-last): 0.0381 | Kp ([4]; human, Subject 90001, read-out: CSF/Plasma Ratio based on Cmax): 0.0358 | Kp ([4]; human, Subject 90003, read-out: CSF/Plasma Ratio based on AUC0-last): 0.0384 | Kp ([4]; human, Subject 90003, read-out: CSF/Plasma Ratio based on Cmax): 0.0291 | AUC(0-t) ([4]; human, plasma, Subject 90001): 3160 ng·h/mL | Cmax ([4]; human, plasma, Subject 90001): 695 ng/mL | AUC(0-t) ([4]; human, plasma, Subject 90003): 1210 ng·h/mL | Cmax ([4]; human, plasma, Subject 90003): 250 ng/mL | tmax ([4]; human, CSF, Subject 90003, read-out: tmax): 3 h | amyloid β monomer concentration in the cerebral spinal fluid or interstitial fluid (amyloid β monomer): no change

Reference: patent US20230098944A1, “METHOD OF DECREASING AMYLOID BETA MONOMER LEVELS IN PATIENTS WITH COGNITIVE DECLINE” (Cognition Therapeutics, Inc., priority 2020, published 2023)
